Measured values published in a melting point compilation (Tetko et al.; mined from patent text by program, amines drawn as free bases though some values may be those of a salt).

Row | melting point [°C] | Compound
1 | 140 to 141 | CCC(C(C)=CC(CNC(=O)Cc1cccnc1)=NO)[N+](=O)[O-] (configuration not stated)
2 | 314 to 330 | Cc1cc(Cl)c2c(ccc3nc(C)[nH]c32)n1
3 | 192 to 194 | CN(C)c1cccc(NC(=S)NN=Cc2ccc(-c3ncn(-c4ccc(OC(F)(F)F)cc4)n3)cc2)c1
4 | 176 to 177 | COc1ccc(CC2CCC3=C(CCC(=O)N3)C2)cc1 (configuration not stated)
5 | > 280 | O=C(Cc1ccccc1)Nc1ccc(-c2ccc(C(=O)O)c(=O)[nH]2)cc1
6 | > 300 | NC(=O)c1cc2cc(OC(F)(F)F)cc(NS(=O)(=O)c3cccs3)c2[nH]1
7 | 170 | O=C(Nc1cccc2[nH]ccc12)c1ccccc1OCC(O)CN1CCN(C(c2ccccc2)c2ccccc2)CC1 (configuration not stated)
8 | 153 to 154 | N#Cc1cccc(CSc2nnc(-c3ccnc(NC(=O)CCc4ccccc4)c3)o2)c1
9 | 124 | CC(C)(C)c1cc(SCCc2n[nH]c(=S)o2)cc(C(C)(C)C)c1O
10 | 185 to 187 | Cn1c(Cl)c(C=O)c2cccc(Cl)c21
11 | 128 to 130 | CC(Oc1cc(Oc2ccc(C(F)(F)F)cc2Cl)ccc1[N+](=O)[O-])C(=O)NCc1ccco1 (configuration not stated)
12 | 170 to 172 | CC(=O)c1c(CCc2ccc(F)cc2)[nH]c2ccc(Cl)cc12
13 | 206 | CC(=O)OCC(=O)Nc1cccc(-c2nnc(C(c3ccc(Cl)cc3)c3c(Cl)ccc(-n4ncc(=O)[nH]c4=O)c3Cl)o2)c1C (configuration not stated)
14 | 86 to 87 | Cc1ccc(-c2nc(Cl)cc(-c3ccccc3)n2)cc1
15 | 167 to 168 | O=c1c2cccnc2c(-c2cccc([N+](=O)[O-])c2)nn1Cc1ccncc1
16 | 37 to 38 | CC12CCCC(C1)OC2=O (configuration not stated)
17 | 167 to 169 | Cn1c2ccccc2c2ccc3ccccc3c21
18 | 68 | CCCCCCCCC(=O)NC1CC(C)(C)N(CC#N)C(C)(C)C1
19 | 63 to 65 | CC(C)(O)C#Cc1ccc(C#N)cc1Cl
20 | 165 to 166 | Cc1ccc2cc(CCCc3ccncc3)c(=O)n(-c3cccc([N+](=O)[O-])c3)c2n1
21 | 113 to 115 | COC(=N)N1CCC(c2nn(-c3ccc(C(F)(F)F)cc3)c3ccccc23)CC1
22 | 160 to 163 | N#Cc1cc([N+](=O)[O-])cc(C#N)c1N
23 | 144 | CCC1(O)CCC2(C)C(CCC3C4CCC(C5(C)OCCO5)C4(C)CC(=O)C32)C1 (configuration not stated)
24 | 145 to 147 | CNC(=O)N(C(=O)Nc1ccccc1)c1ccccc1
25 | 71 to 72 | CCOC(=O)C(=CN(C)C)C(=O)C(Cl)Cl

Row | melting point [°C] | Compound
26 | 200 to 202 | OCc1cccc(-c2ccc3nc(-c4ccc(Cl)cc4)cn3c2)c1F
27 | 176 to 179 | COc1cc(NC(=O)Nc2c(-c3ccccc3C)c3cc4c(cc3oc2=O)CCC4)cc(OC)c1O
28 | 135 to 138 | COC(=O)NC1=NCC(c2ccc(OC(C)C)cc2)N1C (configuration not stated)
29 | 171 to 173 | CC(C)COC(=O)Sc1ccc(-c2ccc(C(CCl)NC(=O)c3c(F)cccc3F)cc2)cc1 (racemic)
30 | 140 to 141 | CCOC(=O)c1c(NC2CCCCC2)c(C#N)c(=O)n2ccccc12
31 | 102 to 104 | CC(C)(O)CCCCc1ccc(C=Cc2ccc(CO)c(CO)c2)cc1
32 | 60 to 63 | COc1ccc(CC(=O)NCC(OC)OC)cc1OC
33 | 192 | COc1ccc(NC(=S)c2ccc(N(C)C)cc2)cc1
34 | 226 to 228 | O=C(O)Cc1ccc2c(c1)sc1c(Cl)cccc12
35 | 44.5 to 46 | CCCCCCCCCCCC(O)CC1COC1=O (configuration not stated)
36 | 209 to 211 | CCCNC(=O)N(C)C1CCN(c2ncnc3cc(OC)c(OC)cc23)CC1
37 | 84 to 87 | Cc1c(NC(=O)C(CSC(=O)N(C)C)Cc2ccccc2)cccc1C(=O)O (configuration not stated)
38 | 271 | O=C(O)c1ccc(CN(Cc2cc(Br)ccc2OCc2ccccc2)c2ccc(C(=O)O)cc2)cc1
39 | 65 | O=[N+]([O-])c1ccc(F)c(-c2ccsc2)c1
40 | 124 to 125 | C#CCN1CC(=O)NC1=O
41 | 113 to 114 | COC(=O)N[C@@H](CSc1ccccc1)[C@H](O)CCl
42 | 170 to 171 | CN(C)c1ccc2c(c1)nc(/C=C/c1ccccc1)n2-c1ccccn1
43 | 220 to 221 | CC(=O)Nc1ccc2c(c1)c(-c1cc3cccnc3[nH]1)cn2C
44 | 99 to 100 | O=CCC(c1ccccc1)c1cc(Br)ccc1OCc1ccccc1 (configuration not stated)
45 | 135 to 136 | CC(C)Oc1ccc2c(c1)Oc1cc(F)ccc1S2(=O)=O
46 | 75 to 76 | N#CCCCCCCNc1ccc(O)cc1
47 | 311 to 317 | O=C(O)c1ccc(Nc2nccc(-c3cccnc3)n2)cc1
48 | 71 to 73 | CCOC(=O)Cc1nc(-c2ccc(Cl)cc2)sc1Sc1ccccc1
49 | 80 to 82 | Nc1ccc(CCCCC(=O)O)nc1
50 | 209 to 211 | COc1ccc(NC(=O)Nc2ccc(Cl)c(Cl)c2)cc1NC(=S)Nc1cccc(C(=O)O)c1

Row | melting point [°C] | Compound
51 | 172 to 173 | COCCCc1ccc2oc(-c3cc4cccn4cn3)cc(=NO)c2c1
52 | 84 to 86 | COc1ccc(CN2CCSC2=O)cc1
53 | 43 to 45 | CNC(=S)NCCCc1ncco1
54 | 93 to 96 | O=C(OC(c1ccccc1)c1ccccc1)C(=C(CBr)N1CCOCC1)N1C(=O)C2N=C(Cc3ccccc3)SC21 (configuration not stated)
55 | 90.4 | O=C(NO)C1(S(=O)(=O)c2ccc(Oc3ccc(Cl)cc3)cc2)CCN(Cc2ccccc2)CC1
56 | 123 | O=S(Cc1ccccc1)C1CCN(Cc2ccccc2)CC1 (racemic)
57 | 92 | O=C1COC(CCOC(=O)c2ccccc2)(c2ccc(F)c(F)c2)CN1 (configuration not stated)
58 | 52 to 55 | Cc1cccc(C)c1NCC(C)Nc1c(C)cccc1C (configuration not stated)
59 | 130 to 132 | Cc1ccc(OCC#CI)c(Cl)n1
60 | 160 to 161 | CCOC(=O)C1=C(N)NC(C)=CC1c1ccc(OC)cc1 (configuration not stated)
61 | 146 to 148 | CCN(CCOC)C(=O)C1=CC(c2ccccc2)C(=O)n2cc3cccc(Cl)c3c21 (configuration not stated)
62 | 51 to 52 | CCCCN(CCCCCN(CCCC)c1ccc(C=O)cc1)c1ccc(C=O)cc1
63 | 183 | c1ccc(-c2[nH]c3ccccc3c2CCC2CCNCC2)cc1
64 | 127 to 128 | COC(=O)CN(C(=O)c1ccc(Cl)cc1)c1ccccc1CCC#N
65 | 172 to 174 | COC(=O)C1CCSC(C)(C)C(=O)N1 (configuration not stated)
66 | 112 to 115 | CC(C)OC(=O)c1cc(-n2c(=O)c3c(n(C)c2=O)CCC3)c(F)cc1F
67 | 211 to 213 | CC(C)(C)C(NC(=O)c1ccc(Cl)cc1)NC(=NC#N)Nc1c(F)cccc1F (configuration not stated)
68 | 256 to 257 | CC(C)Cc1nc2ccc(O)cc2c(-c2ccccc2F)c1C#N
69 | 159 to 160 | COc1ccc2c(c1)C(=O)CC1C2CCC2(C)C(O[Si](C)(C)C(C)(C)C)CCC12 (configuration not stated)
70 | 238 to 244 | CC1(c2ccccc2)C(=O)c2c(cc(O)c(Cl)c2Cl)C1c1ccccc1 (configuration not stated)
71 | 111 to 113 | CCOC(=O)C[C@@H]1C(=O)N(S(=O)(=O)c2ccc(OC)cc2)C=C[C@@H]1c1ccccc1
72 | 230 to 235 | CCc1n[nH]c(=O)c2ccc(OC)cc12
73 | 235 to 265 | C[C@@H](NC(=O)c1c[nH]c2ncc(-c3nn(C)c4cc(F)cc(F)c34)nc12)C(=O)N1CC(C#N)C1
74 | 78 | ClCSc1ncc(Cl)cn1
75 | 106 to 107 | CCc1c(-c2ccc(OCc3ccccc3)cc2)c2c(COCCCCCN3CCCCC3)cc3c(OCc4ccccc4)ccc1n32

Row | melting point [°C] | Compound
76 | 78 to 80 | CCCOCCOc1cccc2oc(C(=O)N3CCN(C)CC3)cc(=O)c12
77 | 73 to 76 | CCOC(=O)C(=CNc1nnc(C(F)(F)F)s1)C(=O)c1cc(F)c(Cl)nc1Cl
78 | 201 to 204 | O=C(N[C@H](Cc1ccccc1)C(=O)O)OCc1ccc2oc(Cc3ccccc3)cc2c1
79 | 96 to 98 | CCN(C(=O)c1cc(N(C)C)ccc1[Si](C)(C)C)C(OC)C(C)(C)C (configuration not stated)
80 | 238 to 240 | CSc1nc(N)n2nc(-c3ccco3)nc2n1
81 | 111 to 113 | O=C(NCC/C=C\CCCNC(=O)c1ccc(OC(F)(F)F)cc1)c1ccc(OC(F)(F)F)cc1
82 | 140 | O=C(O)C(O)c1cccnc1 (configuration not stated)
83 | 187 to 188 | Cc1ccc(-c2ccc(S(C)(=O)=O)cc2)n1-c1ccc(-c2ccsc2)cc1
84 | 75.5 to 78 | Clc1ccc(OC(c2cccnc2)n2cncn2)c(Cl)c1 (configuration not stated)
85 | 71 to 73 | Cc1ccc(-c2ccccc2)cc1C#N
86 | 182 to 184 | CC1(C)OCc2cc(Cl)cc(C(C)(O)c3cn(C(c4ccccc4)(c4ccccc4)c4ccccc4)cn3)c2O1 (configuration not stated)
87 | 159 | O=C1NCCCN2c3ccccc3CC12 (configuration not stated)
88 | 211 to 213 | O=C(NC(=O)c1c(Cl)cccc1Cl)Nc1ccc(OC(F)(F)C(Cl)Cl)cc1
89 | 182 to 183 | CCOC(=O)c1cccn2c(S(=O)(=O)Cl)c(C)nc12
90 | 153 to 154 | CCC(CC)n1nnc2c(Nc3ccc(C(C)=O)cc3Br)nc(C)nc21
91 | 248 to 251 | CC1(Cl)C(=S)Nc2ccc(Cl)cc21 (configuration not stated)
92 | 54 to 57 | CC(CF)(CF)C(=O)C(Br)Oc1ccc(Cl)cc1 (configuration not stated)
93 | 102 to 104 | CCOC(=O)C1CCN(c2nnc(-c3ccc(C)cc3)c(-c3ccc(C)cc3)n2)CC1
94 | 63.5 to 64.5 | CCOC(=O)CCSC(CC)=NNC(N)=O
95 | 113 to 114 | CC(C)CCCC(C)C1CC=C2C3=C(CCC21C)C1(C)CCC(O)CC1CC3 (configuration not stated)
96 | 113 to 114 | Cc1c(C(=O)O)ccc(S(C)(=O)=O)c1N(C)C
97 | 93 to 95 | COc1cc(/C=C/C(=O)/C=C/c2ccc(OC(F)(F)F)cc2)ccc1O
98 | 178 to 179 | CCOc1cccc(-c2ccc(C3CCN(S(=O)(=O)C(C)(C)C(=O)O)CC3)cc2C)n1

Row | Compound | melting point [°C]
99 | Cn1cc(-c2ccc3c(c2)C(C)(C)CCC3(C)C)cc1C=CC(=O)O | 165 to 166
100 | Cc1cc(C(=O)O)ncc1C(c1c(F)ccc(F)c1F)S(=O)(=O)CCC(F)(F)F (configuration not stated) | 85 to 87
101 | COc1ccc(C(=O)C2C(Cl)=CC=CC2(C)Cl)c(OC(=O)Cc2ccccc2)c1OC (configuration not stated) | 106
102 | O=C(Nc1cccc(C(=O)Nc2nnn[nH]2)c1)NC1N=C(c2ccccc2F)c2ccccc2N(CC(=O)N2CC3CCC(CC3)C2)C1=O (racemic) | 193 to 196
